Assay results from US3984432A, “Color photographic recording material” (priority 1973, dated 1976).

Assay: Absorption maximum after colour development in a photographic silver halide layer according to Use Example I
Assay type: physicochemical
Conditions: for Abs.max., first of two maxima (subsidiary maximum) / Abs.max., second of two maxima (absorption maximum): pyrazolone coupling agents
Experimental: The compounds of the formulae which follow are prepared according to methods which are in themselves known, from the corresponding 4-equivalentcoupling agents (the corresponding compounds with hydrogen in the position marked with *, in place of the substituents drawn). With regard to methods of manufacture, compare DT-OS or DT-AS 1,236,332, 2,043,271, 1,547,672 or 1,187,477. Next to the formula, the absorption maximum in nm is specified in each case (see footnote to Table I). ##SPC8##
*)After colour development of the coupling agents in a photographic silve
halide layer according to Use Example I
0.3 mmol of coupling agent of the formula (215) is dissolved in 2.0 ml of tricresyl phosphate/methylene chloride (3:7). The methylene chloride is evaporated off, 6.0 ml of an 8% strength aqueous solution of sodium isopropylnaphthalene-sulphonate, 20.0 ml of 6% strength gelatine solution and 3.4 ml of water are added and the mixture is adjusted to pH 6.5 and emulsified for 5 minutes by means of an ultrasonic apparatus with an output of 100 watt.
5.0 of coupling agent emulsion freshly treated with ultrasonics, 3.3 ml of silver bromide emulsion of pH 6.5, containing 1.4% of silver and 6.0% of gelatine, 2.0 ml of 1% strength aqueous solution of the hardener of the formula [formula] and 1.7 ml of water are mixed with one another and cast at 40°C on a substrated glass plate of size 13 cm × 18 cm. After solidifying at 10° C, the plate is dried in a drying cabinet with circulating air at 32° C.
A strip cut to 4.0 cm × 6.5 cm is exposed to 500 Lux/cm^2 under a step wedge for 2 seconds and is subsequently treated at 24° C as follows: […]

Row | Compound | Abs.max. (single maximum) | Abs.max., first of two maxima (subsidiary maximum) | Abs.max., second of two maxima (absorption maximum)
1 | CCOP(=O)(CCCc1ccc(NC(=O)CC(=O)c2ccccc2)cc1)OCC [(101)] | 437 nm |  | 
2 | CCOP(=O)(Cc1ccc(NC(=O)CC(=O)c2ccccc2)cc1)OCC [(102)] | 438 nm |  | 
3 | CCOP(=O)(CCCc1ccc(NC(=O)CC(=O)C(C)(C)C)cc1)OCC [(103)] | 429 nm |  | 
4 | CCOP(=O)(CCCN(C)c1cccc(NC(=O)CC(=O)c2ccccc2)c1)OCC [(104)] | 435 nm |  | 
5 | CCCCOP(=O)(CC(=O)Nc1cccc(NC(=O)CC(=O)C(C)(C)C)c1)OCCCC [(105)] | 436 nm |  | 
6 | CCOP(=O)(CC(=O)Nc1cccc(NC(=O)CC(=O)c2ccccc2)c1)OCC [(106)] | 442 nm |  | 
7 | CCOP(=O)(OCC)C(C)(C)NC(=O)c1cccc(NC(=O)c2cccc(NC(=O)CC(=O)c3ccccc3)c2)c1 [(107)] | 444 nm |  | 
8 | CCOP(=O)(OCC)C(C)(C)NC(=O)c1cccc(NC(=O)CC(=O)c2ccccc2)c1 [(108)] | 440 nm |  | 
9 | CCOP(=O)(OCC)C(C)(C)NC(=O)c1cccc(NC(=O)CC(=O)c2ccc([N+](=O)[O-])cc2)c1 [(110)] | 440 nm |  | 
10 | CCOP(=O)(OCC)C(C)(C)NC(=O)c1cc(NC(=O)CC(=O)c2ccccc2)cc(C(=O)NC(C)(C)P(=O)(OCC)OCC)c1 [(111)] | 440 nm |  | 
11 | CCOP(=O)(CCCOc1cccc(C(=O)Nc2cccc(C(=O)CC(=O)Nc3cc(C)ccc3OC)c2)c1)OCC [(112)] | 440 nm |  | 
12 | CCCCOP(=O)(CCCOc1cc(OCCCP(=O)(OCCCC)OCCCC)cc(C(=O)Nc2ccc(NC(=O)CC(=O)C(C)(C)C)cc2)c1)OCCCC [(114)] | 431 nm |  | 
13 | CCCCOP(=O)(CCCOc1cc(OCCCP(=O)(OCCCC)OCCCC)cc(C(=O)Nc2cccc(NC(=O)CC(=O)C(C)(C)C)c2)c1)OCCCC [(115)] | 435 nm |  | 
14 | CCCCOP(=O)(CCCOc1cc(OCCCP(=O)(OCCCC)OCCCC)cc(C(=O)Nc2ccc(Cl)c(NC(=O)CC(=O)C(C)(C)C)c2)c1)OCCCC [(116)] | 444 nm |  | 
15 | CCCCOP(=O)(CCCOc1cc(OCCCP(=O)(OCCCC)OCCCC)cc(C(=O)Nc2ccc(C)c(NC(=O)CC(=O)C(C)(C)C)c2)c1)OCCCC [(117)] | 445 nm |  | 
16 | CCCCOP(=O)(CCCc1ccc(NC(=O)c2ccc(OC)c(NC(=O)CC(=O)C(C)(C)C)c2)cc1)OCCCC [(118)] | 438 nm |  | 
17 | CCCCC(CC)COP(=O)(CCCOc1cccc(C(=O)Nc2cccc(C(=O)CC(=O)Nc3cc(C)ccc3OC)c2)c1)OCC(CC)CCCC (centres unmarked) [(120)] | 434 nm |  | 
18 | CCCCOP(=O)(CCCOc1cccc(C(=O)Nc2cccc(C(=O)CC(=O)Nc3cc(C)ccc3OC)c2)c1)OCCCC [(121)] | 434 nm |  | 
19 | CCCCC(CC)COP(=O)(CCCOc1cccc(NC(=O)CC(=O)c2ccccc2)c1)OCC(CC)CCCC (centres unmarked) [(122)] | 436 nm |  | 
20 | CCCCOP(=O)(CCCOc1cccc(NC(=O)CC(=O)c2ccccc2)c1)OCCCC [(123)] | 436 nm |  | 
21 | CCCCOP(=O)(CCCc1ccc(NC(=O)CC(=O)c2ccccc2)cc1)OCCCC [(124)] | 436 nm |  | 
22 | CCCCOP(=O)(CCCc1ccc(NC(=O)CC(=O)c2ccc(Cl)cc2)cc1)OCCCC [(125)] | 440 nm |  | 
23 | CCCCOP(=O)(CCCc1ccc(NC(=O)c2ccc(OC)c(NC(=O)CC(=O)c3ccc(OC)cc3)c2)cc1)OCCCC [(126)] | 448 nm |  | 

Row | Compound | Abs.max. (single maximum) | Abs.max., first of two maxima (subsidiary maximum) | Abs.max., second of two maxima (absorption maximum)
24 | COc1ccc(C(=O)NCCCP(=O)(OC(C)C)OC(C)C)cc1NC(=O)CC(=O)c1ccc(Cl)cc1 [(127)] | 444 nm |  | 
25 | CC(C)(C)P(=O)(Oc1ccccc1)Oc1ccc(NC(=O)CC(=O)c2ccccc2)cc1 (centres unmarked) [(129)] | 440 nm |  | 
26 | COc1ccc(C(=O)CC(=O)Nc2ccc(OP(=O)(Oc3ccccc3)C(C)(C)C)cc2)cc1 (centres unmarked) [(130)] | 437 nm |  | 
27 | COc1ccc(C(=O)CC(=O)Nc2cc(C(=O)NCCCP(=O)(OC(C)C)OC(C)C)ccc2C(=O)NCCCP(=O)(OC(C)C)OC(C)C)cc1 [(131)] | 442 nm |  | 
28 | CC(C)CCOP(=O)(CCCc1ccc(NC(=O)CC(=O)c2ccc(Cl)cc2)cc1)OCCC(C)C [(132)] | 438 nm |  | 
29 | CCCCC(CC)COP(=O)(CCCNC(=O)c1ccc(Cl)c(NC(=O)CC(=O)c2ccccc2OC)c1)OCC(CC)CCCC (centres unmarked) [(133)] | 436 nm |  | 
30 | CCCCC(CC)COP(=O)(CCNC(=O)c1ccc(Cl)c(NC(=O)CC(=O)c2ccc(OC)cc2)c1)OCC(CC)CCCC (centres unmarked) [(134)] | 447 nm |  | 
31 | CCCCOP(=O)(Cc1ccc(CP(=O)(OCCCC)OCCCC)c(NC(=O)c2ccc(OC)c(NC(=O)CC(=O)c3ccc(C(C)(C)C)cc3)c2)c1)OCCCC [(136)] | 440 nm |  | 
32 | CCCCOP(=O)(Cc1ccc(CP(=O)(OCCCC)OCCCC)c(NC(=O)c2ccc(OC)c(NC(=O)CC(=O)c3ccccc3OCC)c2)c1)OCCCC [(137)] | 425 nm |  | 
33 | CCCCOP(=O)(CCCC)Oc1cccc(NC(=O)Cc2ccc(NC(=O)CC(=O)c3ccccc3Cl)cc2)c1 (centres unmarked) [(138)] | 442 nm |  | 
34 | Cc1ccc(C(=O)NCCCP2(=O)OCC(C)(C)CO2)cc1NC(=O)CC(=O)c1ccc(Cl)cc1 [(139)] | 441 nm |  | 
35 | CC(C)OP(=O)(OC(C)C)C1(C)CC(NC(=O)c2ccc(Cl)c(NC(=O)CC(=O)c3ccc(C(C)(C)C)cc3)c2)CC(C)(C)C1 (centres unmarked) [(140)] | 439 nm |  | 
36 | CCCCOP(=O)(CCCC)Nc1cccc(NC(=O)c2cc(NC(=O)CC(=O)c3ccccc3)ccc2Cl)c1 (centres unmarked) [(141)] | 438 nm |  | 
37 | CCCCOP(=O)(OCCCC)C(CC)OC(=O)c1ccc(NC(=O)CC(=O)c2ccccc2OC)cc1 (centres unmarked) [(142)] | 435 nm |  | 
38 | CCCCOP(=O)(Cc1ccc(CP(=O)(OCCCC)OCCCC)c(NC(=O)c2ccc(C)c(NC(=O)CC(=O)c3ccccc3Cl)c2)c1)OCCCC [(143)] | 440 nm |  | 
39 | CC(C)OP(=O)(OC(C)C)C1(C)CC(NC(=O)c2ccc(Oc3ccccc3)c(NC(=O)CC(=O)c3ccc(Cl)cc3)c2)CC(C)(C)C1 (centres unmarked) [(144)] | 441 nm |  | 
40 | CCCCCCOP(=O)(OCCCCCC)c1ccc(NC(=O)c2cccc(NC(=O)CC(=O)c3ccc(Cl)cc3)c2)cc1 [(145)] | 449 nm |  | 
41 | COc1ccc(C(=O)C(Cl)C(=O)Nc2ccc(OP(=O)(Oc3ccccc3)C(C)(C)C)cc2)cc1 (centres unmarked) [(146)] | 437 nm |  | 
42 | CCCCOP(=O)(CCCc1ccc(NC(=O)C(Cl)C(=O)c2ccccc2)cc1)OCCCC (centres unmarked) [(147)] | 436 nm |  | 
43 | CCOP(=O)(CCCOc1cccc(C(=O)Nc2ccc(C(=O)NC3=NN(c4c(Cl)cc(Cl)cc4Cl)C(=O)C3)cc2)c1)OCC [(201)] |  | 432 nm | 542 nm
44 | CCOP(=O)(CCCOc1cccc(C(=O)NC2=NN(c3c(Cl)cc(Cl)cc3Cl)C(=O)C2)c1)OCC [(202)] |  | 434 nm | 535 nm
45 | CCOP(=O)(CCCOc1ccc(C(=O)Nc2ccc(C(=O)NC3=NN(c4c(Cl)cc(Cl)cc4Cl)C(=O)C3)cc2)cc1)OCC [(203)] |  | 434 nm | 539 nm
46 | CCOP(=O)(CCCOc1ccc(C(=O)NC2=NN(c3c(Cl)cc(Cl)cc3Cl)C(=O)C2)cc1)OCC [(204)] |  | 434 nm | 534 nm
